Measured values as given in patent US12390467B2, “Necroptosis inducers or autophagy inhibitors or a combination thereof” (The University of Toledo, priority 2018, dated 2025).

Columns and labels:
Type in all cases: cell-based
[1] = tested on: normal human mammary epithelial cells (HMEC); assay: MTT cell viability assay, HMEC; settings: Homo sapiens, HMEC; MTT, 72 h; Normal; read-out: IC50 ± SD, HMEC
Protocol: (§1) The following cancer and non-cancer cell lines were used in the initial cytotoxicity screening of the TPH104 compounds: triple negative breast cancer (TNBC): MDA-MB468, MDA-MB 231, and BT-20; non-TNBC: MCF-7 and ZR-75-1; ovarian: Ov2008; prostate: DU145; colon: HCT-116, S1, and LOVO; lung: H460; normal kidney: HEK-293; normal breast: HMEC; and normal colon: CRL-1459. All cells were cultured in Dulbecco's modified Eagle medium (DMEM), supplemented with 10% fetal bovine serum (FBS), and 1% penicillin/streptomycin (P/S). Cells were allowed to grow as adherent monolayers in T25 flasks in a humidified incubator with 5% CO2 at 37° C. for a period of 24 h, unless otherwise specified for certain experiments.
(§2) The MTT assay was used to determine the cytotoxicity of all of the compounds. Briefly, in a 96-well flat-bottom cell culture plate, the cells were seeded at a density between 3-5×10^3 cells/well (180 μl in each well) and incubated for 24 h (a hemocytometer was used for cell counting). The next day, the cells were incubated with different concentrations of the nine compounds (0, 0.1, 0.3, 1, 3, 10, 30, and 100 μM) for 72 h. After 72 h, 20 μl of 5 mg/ml of 3-(4,5-dimethylthiazol-2-yl)-2,5-diphenyltetrazolium bromide (MTT) was added to the plate and incubated with the cells for 3 h at 37° C. In this experiment, the living cells will reduce the soluble MTT dye to non-soluble purple formazan crystals. Following incubation, the media containing MTT removed via suction and 100 μL of 100% dimethyl sulfoxide (DMSO) was added to dissolve the formazan crystals. Subsequently, the plate was shaken for 2 minutes and the absorbance was measured at a wavelength of 570 nm using a SpectraMax iD3 Multi-Mode Microplate Reader (Molecular Devices, Sunnyvale, CA). The IC50 values of each compound were calculated and used to determine the selectivity ratio (IC50 in normal cells/IC50 in cancer cells) of each compound as previously described. Based on the results obtained from these experiments, the compound TPH104, which had the lowest IC50 value, was selected for further experiments.

[2] = tested on: MDA-MB231 (TNBC cell line); assay: MTT cell viability assay, MDA-MB231; settings: Homo sapiens, MDA-MB-231, 72 h, read-out: IC50 ± SD, MDA-MB231
Protocol: as §1, §2

[3] = tested on: MCF-7 (non-TNBC cell line); assay: MTT cell viability assay, MCF-7; settings: Homo sapiens, MCF7, 72 h, read-out: IC50 ± SD, MCF-7
Protocol: as §1, §2

TNBC cell lines = assay: Cytotoxicity screening (MTT), TNBC cell lines overall; settings: classification of Table 1 cytotoxicity data
Source text: To this end, several commercial databases were searched, and 17 similar molecules from the VitasM database were retrieved with considerable structural diversity in terms of the substitution on the aryl ring A attached to the thienopyrimidine scaffold and aryl ring B attached to hydrazino moiety. Further, the biological evaluation of the 17 molecules sheds light on the structural features deemed important for the selective cytotoxicity shown by this class of molecules. With this understanding, the 17 molecules were subjected to a screening protocol comprising of two TNBC, two non-TNBC, and one normal cell lines.
as §1, §2

[4] = tested on: MDA-MB468 (TNBC cell line); assay: MTT cell viability assay, MDA-MB468; settings: Homo sapiens, MDA-MB-468, 72 h, read-out: IC50 ± SD, MDA-MB468
Protocol: as §1, §2

[5] = tested on: ZR-75-1 (non-TNBC cell line); assay: MTT cell viability assay, ZR-75-1; settings: Homo sapiens, ZR-75-1, 72 h, read-out: IC50 ± SD, ZR-75-1
Protocol: as §1, §2

BT-20 cells = assay: Acridine orange assay; settings: 20 μM, 12 h, vs vehicle
Protocol: The cell-permeant, nucleic acid binding dye, acridine orange (AO) was used to assess the effect of TPH104 on the activation of lysosomes. A 10 μg/ml stock solution was prepared using PBS. The TNBC cells were seeded in a 6-well plate as described in the cell cycle assay. After overnight incubation, cells were incubated with TPH104 (1, 2, 5 μM), vehicle or 20 uM of chloroquine (CQ, […]) for 12 h. The media was removed via suction and 1 ml of AO, diluted in 1:1000 in PBS, was added to each well and the plate was incubated for an additional 30 minutes. Cells were washed three times in PBS to remove excess dye. The cells from each well were captured from randomly selected fields using a fluorescent microscope (EVOS-FLC cell imaging system, Thermofisher scientific) at 40× to determine the AO fluorescence intensity which is positively correlated to lysosomal activation.

BT-20 or MDA-MB468 cells = assay: Cellular reactive oxygen species (ROS) detection assay (H2DCFDA); settings: 2 μM
Protocol: To assess the effect of TPH104 on the generation of ROS, a cell permeant, fluorogenic dye, 2′,7′-dichlorofluorescin diacetate, H2DCFDA, was used. A 5 mM stock solution was prepared using DMSO and PBS was used to prepare the 3 μM working solution of H2DCFDA. The TNBC cells were seeded in a 6-well plate as described in the cell cycle assay. After overnight incubation, cells were incubated with different TPH104 (1, 2, 5 μM) or vehicle for 12 h or with 2 μM of paclitaxel (positive control) for 2 h. The H2DCFDA dye (3 μM) was added to each well and the plate was incubated for an additional 30 minutes. Subsequently, cells were washed 3 times in PBS to remove excess H2DCFDA dye. Thereafter, cells from each well were captured from randomly selected fields using a fluorescent microscope (EVOS-FLC cell imaging system, Thermofisher scientific) at 40× to determine the 2′,7′-dichlorofluorescein (DCF) fluorescence intensity, which is positively correlated with the generation of ROS.

[6] = tested on: RIP, p-RIP, MLKL, caspase 8 in MDA-MB468 cells; assay: Western blot, necroptotic proteins, MDA-MB468; settings: 100 μM
Protocol: The TNBC cells were seeded in a culture flask and incubated for 24 h. The cells were then incubated with different concentrations of the lead compounds and re-incubated for an additional 12 or 24 h. […] The bicinchoninic acid (BCA) was used to determine protein concentration in the cell extracts (G-BIOSCIENCES, St. Louis, MO, USA). […] The membrane was blocked using 5% milk in Tris-buffered Tween 20 saline for 30 minutes. The membrane was then incubated overnight with primary antibodies against Bak, Bax, Bcl-2, caspase9, caspase 3, caspase 7, PARP, cytochrome c, N-cadherin, E-cadherin, c-Myc, dishevelled segment polarity protein 3 (DVL3), dishevelled segment polarity protein 2 (DVL2), Vimentin, mitogen-activated protein kinase kinase (MAPKK also known as MEK1/2), β-catenin, low-density lipoprotein receptor-related protein 6 (LRP6), receptor-interacting protein kinase (RIP), phosphorylated RIP (p-RIP), mixed lineage kinase domain like pseudokinase(MLKL), Caspase 8, light chain 3 (LC3), lysosomal-associated membrane protein 1 (LAMP1), unc-51 like autophagy activating kinase 1 (ULK1), ras associated protein 7 (Rab7), ras associated protein 5 (Rab5), Beclin 1, mechanistic target of rapamycin (mTOR), tumor necrosis factor alpha (TNF-α), tumor necrosis factor receptor 1 (TNFR1), tumor necrosis factor receptor 2 (TNFR2), Fas-associated protein with death domain (FADD), Fas ligand (Fas), TNF-related apoptosis-inducing ligand (TRAIL), death receptor 5 (DR5), Tumor necrosis factor receptor type 1-associated DEATH domain (TRADD), receptor-interacting protein kinase 3 (RIP3), β-actin or GAPDH in 1:1000 dilution in 5% milk or 5% BSA at 4° C. Horseradish peroxidase-labeled (HRP) anti-rabbit or anti-mouse secondary antibodies (1:5,000 dilution) were added and incubated the next day for an additional 1 h. A ChemiDoc™ MP System imaging system from Bio-Rad (Hercules, CA, USA) was used for blots reading. Blots were used to obtain the protein bands, followed by quantification of the bands using image J software (NIH, Bethesda, MD, USA). All of the data were expressed as the ratio of β-actin or GAPDH.

Compound	IC50 [2]	IC50 [3]	IC50 [4]	IC50 [1]	potency compared to TPH104 (TNBC cell lines)	IC50 [5]	AO fluorescence intensity, negative control (BT-20 cells)	DCF fluorescence (ROS), positive control (BT-20 or MDA-MB468 cells)	expression of RIP, p-RIP, MLKL, and caspase 8 [6]
Oc1ccccc1/C=N/Nc1ncnc2scc(-c3ccc(Cl)cc3)c12 [TPH104a]	0.28 ± 0.06 µM	6.96 ± 1.15 µM	0.44 ± 0.26 µM	27.9 ± 8.95 µM	comparable potency to that of TPH104	2.29 ± 0.23 µM			
Oc1c(/C=N/Nc2ncnc3scc(-c4ccccc4)c23)cc2c3c1CCCN3CCC2 [TPH104b]	0.25 ± 0.02 µM	1.52 ± 0.57 µM	0.23 ± 0.05 µM	> 100 µM	equipotent to TPH104	1.18 ± 0.53 µM			
COc1cccc(/C=N/Nc2ncnc3scc(-c4ccccc4)c23)c1O [TPH104c]	0.23 ± 0.01 µM	> 100 µM	0.18 ± 0.02 µM	> 100 µM	equipotent to TPH104	10.7 ± 1.1 µM			
Cc1ccc(-c2csc3ncnc(N/N=C/c4ccccc4O)c23)cc1 [TPH104d]	2.29 ± 0.16 µM	> 100 µM	2.22 ± 1.82 µM	33.1 ± 2.33 µM	moderate potency compared to TPH104	6.05 ± 2.02 µM			
COc1cc(OC)c(OC)cc1/C=N/Nc1ncnc2scc(-c3ccccc3)c12 [TPH104e]	> 100 µM	> 100 µM	> 100 µM	> 100 µM	poor or no potency	> 100 µM			
COc1ccccc1/C=N/Nc1ncnc2scc(-c3ccccc3)c12 [TPH104f]	29.38 ± 0.08 µM	> 100 µM	7.87 ± 1.53 µM	> 100 µM	poor or no potency	> 100 µM			
CCN(CC)CCCC(C)Nc1ccnc2cc(Cl)ccc12 (stereo not drawn) [chloroquine, reference compound]							no significant change		
CC(=O)O[C@H]1C(=O)[C@@]2(C)[C@H]([C@H](OC(=O)c3ccccc3)[C@]3(O)C[C@H](OC(=O)[C@H](O)[C@@H](NC(=O)c4ccccc4)c4ccccc4)C(C)=C1C3(C)C)[C@]1(OC(C)=O)CO[C@@H]1C[C@@H]2O [paclitaxel, reference compound]								significantly increased	
necrostatin-1 [nec-1, reference compound]									significantly downregulated

Further lines, with some results ahead:

IC50 [2]	IC50 [3]	IC50 [4]	Compound	IC50 [1]	potency compared to TPH104 (TNBC cell lines)	IC50 [5]	AO fluorescence intensity, negative control (BT-20 cells)	DCF fluorescence (ROS), positive control (BT-20 or MDA-MB468 cells)	expression of RIP, p-RIP, MLKL, and caspase 8 [6]
27.64 ± 0.15 µM	27.2 ± 2.92 µM	27.3 ± 4.53 µM	COc1ccc(/C=N/Nc2ncnc3scc(-c4ccc(C)cc4)c23)c(OC)c1OC [TPH104g]	> 100 µM	poor or no potency	28.9 ± 2.61 µM			
96.7 ± 0.14 µM	63 ± 2.89 µM	> 100 µM	COc1cccc(/C=N/Nc2ncnc3scc(-c4ccccc4)c23)c1OC [TPH104h]	> 100 µM	poor or no potency	> 100 µM			
> 100 µM	> 100 µM	> 100 µM	COc1ccc(/C=N/Nc2ncnc3scc(-c4ccccc4)c23)c(OC)c1 [TPH104i]	> 100 µM	poor or no potency	> 100 µM			
0.78 ± 0.28 µM	2.84 ± 0.96 µM	0.56 ± 0.34 µM	Oc1ccccc1/C=N/Nc1ncnc2scc(-c3ccccc3)c12 [TPH104j]	4.52 ± 1.38 µM	moderate potency compared to TPH104	3.42 ± 1.53 µM			
1.29 ± 0.52 µM	15.6 ± 6.5 µM	0.91 ± 0.09 µM	Oc1cc(Br)ccc1/C=N/Nc1ncnc2scc(-c3ccccc3)c12 [TPH104k]	> 100 µM	moderate potency compared to TPH104	6.07 ± 5.18 µM			
0.78 ± 0.38 µM	6.59 ± 0.58 µM	1.47 ± 0.84 µM	Oc1ccc(/C=N/Nc2ncnc3scc(-c4ccccc4)c23)c(O)c1 [TPH104l]	> 100 µM	moderate potency compared to TPH104	8.68 ± 1.04 µM			
23.1 ± 1.88 µM	> 100 µM	21.7 ± 0.3 µM	CCOc1cc(/C=N/Nc2ncnc3scc(-c4ccccc4)c23)ccc1O [TPH104n]	> 100 µM	poor or no potency	21.5 ± 3.67 µM			
0.43 ± 0.19 µM	1.22 ± 0.6 µM	0.56 ± 0.24 µM	Cc1ccc(-c2csc3ncnc(N/N=C/c4ccc(C)cc4O)c23)cc1 [TPH104o]	> 100 µM	moderate potency compared to TPH104	1.04 ± 0.54 µM			
62.2 ± 8.83 µM	> 100 µM	55.9 ± 0.98 µM	COc1cc(OC)c(OC)cc1/C=N/Nc1ncnc2scc(-c3ccc(Cl)cc3)c12 [TPH104p]	> 100 µM	poor or no potency	23 ± 0.59 µM			
18.6 ± 2.57 µM	23.5 ± 1.12 µM	22.2 ± 0.78 µM	COc1cc(/C=N/Nc2ncnc3scc(-c4ccccc4)c23)ccc1O [TPH104q]	> 100 µM	poor or no potency	21.4 ± 3.11 µM			
